Measurements: PubChem BioAssay (NCI)
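Grown in 96-well plates, cells were treated for 48 hours with each compound at five concentrations. Insufficient inhibition: endpoint recorded as highest concentration tested. The concentration for 50% growth inhibition is given as GI50. TGI denotes the concentration required for complete inhibition of growth.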

Columns and labels:
Experiment in all cases: NCI anticancer screen, dose series, 48 h
SF-295 CNS = test system: SF-295 CNS
OVCAR-4 ovarian = test system: OVCAR-4 ovarian
786-0 renal = test system: 786-0 renal
UO-31 renal = test system: UO-31 renal
OVCAR-3 ovarian = test system: OVCAR-3 ovarian
SNB-75 CNS = test system: SNB-75 CNS
MALME-3M melanoma = test system: MALME-3M melanoma
MOLT-4 leukemia = test system: MOLT-4 leukemia
CAKI-1 renal = test system: CAKI-1 renal
PC-3 prostate = test system: PC-3 prostate

Compound | TGI (SF-295 CNS) [µM] | TGI (OVCAR-4 ovarian) [µM] | TGI (786-0 renal) [µM] | TGI (UO-31 renal) [µM] | TGI (OVCAR-3 ovarian) [µM] | TGI (SNB-75 CNS) [µM] | TGI (MALME-3M melanoma) [µM] | TGI (MOLT-4 leukemia) [µM] | TGI (CAKI-1 renal) [µM] | GI50 (SF-295 CNS) [µM] | GI50 (786-0 renal) [µM] | GI50 (UO-31 renal) [µM] | GI50 (OVCAR-3 ovarian) [µM] | GI50 (MALME-3M melanoma) [µM] | GI50 (MOLT-4 leukemia) [µM] | GI50 (CAKI-1 renal) [µM] | GI50 (PC-3 prostate) [µM] | TGI (PC-3 prostate) [µM] | GI50 (OVCAR-4 ovarian) [µM] | GI50 (SNB-75 CNS) [µM]
COCC(=O)CP(=O)(OC)OC | > 100 | > 100 | > 100 | > 100 | > 100 | > 100 | > 100 | > 100 | > 100 | – | – | – | – | – | – | – | – | – | – | –
CCOC(=O)C1(Cc2ccccc2)CCCCCN1 (centres undefined) | > 100 | > 100 | > 100 | > 100 | > 100 | 92.6 | > 100 | – | > 100 | – | – | – | – | – | – | – | – | – | – | –
CCCCCC(=O)c1ccc2[nH]c3c(C)cc([N+](=O)[O-])c(C)c3c2c1 | > 100 | > 100 | > 100 | > 100 | > 100 | > 100 | > 100 | > 100 | > 100 | – | – | – | – | – | – | – | – | – | – | –
COc1cccc(C(=O)N2CCc3ccccc32)c1OC | > 100 | > 100 | > 100 | > 100 | > 100 | > 100 | > 100 | 78.7 | > 100 | – | – | – | – | – | – | – | – | – | – | –
Cc1c(C(=O)NCCO)[n+](=O)c2cc(Cl)ccc2n1[O-] | > 100 | > 100 | > 100 | > 100 | > 100 | > 100 | > 100 | > 100 | – | – | – | – | – | – | – | – | – | – | – | –
CCOc1ccc(/C=C(\Cl)c2ccc(OC)c(OC)c2)cc1 | > 100 | > 100 | > 100 | > 100 | – | > 100 | > 100 | > 100 | – | – | – | – | – | – | – | – | – | – | – | –
CN(C)CCCN1c2nc3ccccc3cc2Sc2cc3ccccc3nc21 | 2.81 | – | 2.5 | 2.71 | 2.92 | – | 2.89 | 2.31 | 3.01 | 1.39 | 1.24 | 1.27 | 1.53 | 1.33 | 0.892 | 1.46 | 1.36 | 2.74 | – | –
COC1OC(CO)C(O)C(O)C1Br (centres undefined) | > 100 | > 100 | > 100 | – | > 100 | – | > 100 | > 100 | > 100 | – | – | – | – | – | – | – | – | – | – | –
CN(CN1C(=O)C2Cc3ccccc3CN2C1=O)c1ccccn1 (centres undefined) | > 100 | > 100 | > 100 | > 100 | > 100 | – | > 100 | > 100 | > 100 | – | – | – | – | – | – | – | – | – | – | –
CC(=O)OC1CC2C(C)(C)C(=O)C=C[C@]2(C)C2CCC3(C)C(c4ccoc4)C(=O)[C@H]4O[C@]43[C@]12C (some centres undefined) | – | > 100 | 35.5 | 32.7 | – | > 100 | 32.1 | 46.6 | 75.1 | – | – | – | – | – | – | – | – | – | – | –
C1CCN(c2nsc(N3CCCCC3)n2)CC1 | > 100 | > 100 | > 100 | > 100 | – | > 100 | > 100 | > 100 | > 100 | – | – | – | – | – | – | – | – | – | – | –
CCOC(=O)c1[nH]c(-c2ccc(Cl)cc2)cc1-c1cccnc1 | > 100 | > 100 | 8.58 | > 100 | > 100 | > 100 | – | > 100 | – | 0.453 | 0.44 | 1.02 | 0.349 | – | 0.683 | – | 0.325 | > 100 | 10.2 | 0.738
CN(C)C(N)=NC#N | > 100 | > 100 | > 100 | > 100 | > 100 | > 100 | > 100 | > 100 | > 100 | – | – | – | – | – | – | – | – | – | – | –
C(CCC[Te][Te]CCCCCCOC1CCCCO1)CCOC1CCCCO1 (centres undefined) | 32.1 | – | 29.4 | 77.3 | – | 33.7 | 20.5 | 46.6 | 82.6 | – | – | – | – | – | – | – | – | – | – | –
C=C=C(CC)C(C(=O)OC)N(CC)CC (centres undefined) | > 100 | > 100 | > 100 | > 100 | > 100 | > 100 | > 100 | > 100 | > 100 | – | – | – | – | – | – | – | – | – | – | –
N=c1nnc(=O)c2c(s1)-n1ncc(C(=O)O)c1NN2 | > 100 | > 100 | > 100 | > 100 | > 100 | > 100 | > 100 | > 100 | > 100 | – | – | – | – | – | – | – | – | – | – | –
NNc1cccc(/C=C/c2ccccc2)cc1=O | – | > 100 | > 100 | 9.24 | 62.6 | > 100 | – | > 100 | 8.17 | – | 19.9 | 1.86 | 7.35 | – | 3.94 | 2.6 | 7.87 | > 100 | 4.66 | 31
Cc1ccc(S(=O)(=O)NC(=O)NC23CC4CC(CC(F)(C4)C2)C3)cc1 | – | – | > 100 | > 100 | > 100 | > 100 | > 100 | > 100 | – | – | – | – | – | – | – | – | – | – | – | –
O=C(O)/C(=C/c1c(O)ccc2ccccc12)c1csc(-c2nc(/C(=C\c3c(O)ccc4ccccc34)C(=O)O)cs2)n1 | 28.5 | – | 26.8 | 6.87 | 31.3 | 23.2 | 3.95 | 36.9 | – | – | – | – | – | – | – | – | – | – | – | –
CC(=O)O[C@H]1CC[C@@]2(C)C(=CC[C@H]3C4=CC=C(C(C)=O)[C@@]4(C)CCC32)C1 (some centres undefined) | > 100 | > 100 | > 100 | > 100 | > 100 | > 100 | > 100 | > 100 | > 100 | – | – | – | – | – | – | – | – | – | – | –
Cc1nc2ccc(Nc3nc(NCCN4CCOCC4)nc(Nc4ccc(F)cc4)n3)cc2n1Cc1ccccc1 | 2.93 | – | 3.04 | 8.2 | 20.3 | 4.82 | 3.6 | 10.9 | 65 | 1.49 | 1.41 | 1.78 | 4.24 | 2.04 | 2.7 | 2.55 | 3.26 | 16.2 | – | 1.59
C(=N\OCc1ccccc1)/c1ncccc1C1OCCO1 | > 100 | > 100 | > 100 | > 100 | > 100 | > 100 | > 100 | > 100 | > 100 | – | – | – | – | – | – | – | – | – | – | –
O=C1O/C(=C(\Br)c2cccc3ccccc23)c2ccccc21 | > 53.6 | 30.9 | 31.4 | > 56.1 | > 57.2 | > 87.2 | > 60.6 | 46.7 | – | – | – | – | – | – | – | – | – | – | – | –
